Source: patent publication US20130023681A1, “STABILIZED DOXERCALCIFEROL AND PROCESS FOR MANUFACTURING THE SAME” (ALPHORA RESEARCH INC., priority 2010, published 2013)
Entries after “also recorded” stand apart in the source; their conditions may differ.

Columns and labels:
[1] = Long term stability study (HPLC analysis of stored samples); format: physicochemical
Method: (§1) Samples of material generated by the aforementioned procedure were quarantined, stored and subjected to 2 stability studies:
(§2) Both studies employed ICH-compliant stability chambers for controlled storage, and the following HPLC method for analysis of samples:
(§3) HPLC Detector/wavelength: Photo Diode Array Detector/190-400 nm
(§4) Column: Waters SUNFIRE C18, 4.6 by 150 mm, 3.5 μm
(§5) Column/sample Temperature: 25° C./5° C.
(§6) Flow Rate/injection volume: 1.2 mL per min/10.00 μL
(§7) Sample concentration: 1 mg/mL
(§8) Diluent: Water: DCM: MeOH: ACN (10: 5: 10: 75)
(§9) Eluent: A (H2O); B (ACN); C (MeOH)
Samples were subjected to the following conditions: 5±3° C. Argon headspace, −20±5° C., Argon headspace. Samples were stored in ICH-compliant stability chambers, sampled at 1, 3, 6 and 9 months, and analyzed using the described HPLC method.

[2] = Accelerated storage study (HPLC analysis of stored samples); format: physicochemical
Method: as §1, §2, §3, §4, §5, §6, §7, §8, §9
Samples were subjected to the following conditions: 25±2° C./60±2% R.H., Argon headspace. Samples were stored in ICH-compliant stability chambers, sampled at 1, 3 and 6 months, and analyzed using the described HPLC method.

C=C1/C(=C\C=C2/CCC[C@]3(C)[C@@H]([C@H](C)/C=C/[C@H](C)C(C)C)CC[C@@H]23)C[C@@H](O)C[C@@H]1O [1α-hydroxyvitamin D2]
HPLC purity after long term storage ([1]; 5±3° C. Argon headspace, −20±5° C. Argon headspace, time-points 1, 3, 6 and 9 months, initial (t=0) HPLC a/a purity >99.0% a/a): ≥ 99.0% | HPLC assay after long term storage ([1]; 5±3° C. Argon headspace, −20±5° C. Argon headspace, time-points 1, 3, 6 and 9 months, initial (t=0) HPLC w/w assay >99.0% w/w): ≥ 99.0 % w/w | Change in purity / stability in ICH stability studies (in words) ([1]; samples of purity 99% and above, six months under argon headspace at either −20±5° C. or 5±3° C.): unexpectedly high stability; also recorded: no reduction in purity | HPLC purity after accelerated storage ([2]; 25±2° C./60±2% R.H., Argon headspace, time-points 1, 3 and 6 months, initial (t=0) HPLC a/a purity >99.0% a/a): ≥ 99.0% | HPLC assay after accelerated storage ([2]; 25±2° C./60±2% R.H., Argon headspace, time-points 1, 3 and 6 months, initial (t=0) HPLC w/w assay >99.0% w/w): ≥ 99.0 % w/w | Change in purity on accelerated storage (in words) ([2]; samples of purity 99% and above, 1, 3 and 6 months at 25±2° C., relative humidity 60±2%, argon headspace): no reduction in purity
